Results published in patent US5811512A, “Non-peptide peptidomimetics and related cyclic hexapeptides” (The Trustees of the University of Pennsylvania, priority 1996, dated 1998).
Like-named read-outs stand apart in the source and are kept apart here.

Assays:
[1] = target: T1, human neurokinin-1 receptor (NK1R) (Homo sapiens, UniProt P25103); experiment: Substance P receptor binding: 125I-substance P displacement from human NK1R expressed in COS cells; settings: 125I-SP, COS cells expressing human NK1R; read-out: IC50 (concentration required to inhibit the binding of substance P to the human neurokinin-1 receptor by 50%)
T1 construct: the cDNA for the human NK1R was cloned into the expression vector pCDM9; expressed in transfected cells; host or cells: COS cells (transient, electroporation, vector pCDM9)
Experimental: The affinity of a variety of compounds for the substance P receptor was determined employing the following procedure.
A. Receptor Expression in COS
To express the cloned human neurokinin-1 receptor (NK1R) transiently in COS, the cDNA for the human NK1R was cloned into the expression vector pCDM9 which was derived from pCDM8 (Invitrogen) by inserting the ampicillin resistance gene (nucleotide 1973 to 2964 from Bluescript SK+) into the Sac II site. Transfection of 20 μg of the plasmid DNA into 10 million COS cells was achieved by electroporation in 800 μl of the transfection buffer ([…], 1.2 mM MgCl2, 2.4 mM K2 HPO4, 0.6 mM KH2 PO4, 10 nM glucose, 10 mM HEPES pH 7.4) at 260V and 950 μF using the IBI Genezapper (IBI, New Haven, Conn.). The cells were incubated in 10% fetal calf serum, 2 mM glutamine, 100 U/ml penicillin-streptomycin, and 90% DMEM media (Gibco, Grand Island, N.Y.) in 5% CO2 at 37° C. for three days before the binding assay.
B. Assay Protocol using COS
The binding assay of human NK1R expressed in COS cells is based on the use of ^125 I-substance P (^125 I-SP, from DuPont, Boston, Mass.) as a radioactively labeled ligand which competes with unlabeled substance P or any other ligand for binding to the human NK1R. Monolayer cell cultures of COS were dissociated by the non-enzymatic solution (Specialty Media, Lavallette, N.J.) and resuspended in appropriate volume of the bind buffer (50 mM Tris pH 7.5, 5 mM MnCl2, 150 mM NaCl, 0.04 mg/ml bacitracin, 0.004 mg/ml leupeptin, 0.2 mg/ml BSA, 0.01 mM phosphoramidon) such that 200 μl of the cell suspension would give rise to about 10,000 cpm of specific ^125 I-SP binding (approximately 50,000 to 200,000 cells). In the binding assay, 200 μl of cells were added to a tube containing 20 μl of 1.5 to 2.5 nM of ^125 I-SP and 20 μl of unlabeled substance P or any other test compound. The tubes were incubated at 4° C. or at room temperature for 1 hour with gentle shaking. The bound radioactivity was separated from unbound radioactivity by GF/C filter (Brandel, Gaithersburg, Md.) which was pre-wetted with 0.1 polyethylenimine. The filter was washed with 3 ml of wash buffer (50 Tris pH 7.5, 5 mM MnCl21 150 mM NaCl) three times and its radioactivity was determined by gamma counter.
A variety of compounds were tested according to the COS cell procedure. The concentration of compound required to inhibit the binding of substance P to the human neurokinin-1 receptor by 50% was measured.

SRIF receptor = SRIF receptor affinity: displacement of 125I-CGP-23996 from AtT-20 cells; type: binding; settings: displacement of 125I-CGP-23996, AtT-20 cells
Experimental: The affinity of a variety of compounds for the SRIF receptor was determined by studying the displacement of ^125 I-CGP-23996 from AtT-20 cells using the method generally in accordance with Raynor and Reisine, Journal of Pharmacology and Experimental Therapeutics, 1989, 251;2, 510.

[2] = system: somatostatin receptors of AtT-20 cells; settings: read-out: IC50 for binding somatostatin receptors of AtT-20 cells, cited from earlier work
β-adrenergic receptor = experiment: Radioligand displacement from AtT-20 and brain cells, β-adrenergic receptor; type: binding; settings: 125I-CYP (0.1 nM)
Opiate Receptor = experiment: Radioligand displacement from brain cells, opiate receptor; type: binding; settings: 3H-naloxone (0.5 nM)
Dopamine Receptor = experiment: Radioligand displacement from brain cells, dopamine receptor; type: binding; settings: 3H-spiperone (0.1 nM)
Muscarinic cholingeric = type: binding; settings: 3H-QNB (0.1 nM)
β-adrenergicreceptor = settings: AtT-20 cells; cited from earlier work

T1 sequence (P25103 whole entry): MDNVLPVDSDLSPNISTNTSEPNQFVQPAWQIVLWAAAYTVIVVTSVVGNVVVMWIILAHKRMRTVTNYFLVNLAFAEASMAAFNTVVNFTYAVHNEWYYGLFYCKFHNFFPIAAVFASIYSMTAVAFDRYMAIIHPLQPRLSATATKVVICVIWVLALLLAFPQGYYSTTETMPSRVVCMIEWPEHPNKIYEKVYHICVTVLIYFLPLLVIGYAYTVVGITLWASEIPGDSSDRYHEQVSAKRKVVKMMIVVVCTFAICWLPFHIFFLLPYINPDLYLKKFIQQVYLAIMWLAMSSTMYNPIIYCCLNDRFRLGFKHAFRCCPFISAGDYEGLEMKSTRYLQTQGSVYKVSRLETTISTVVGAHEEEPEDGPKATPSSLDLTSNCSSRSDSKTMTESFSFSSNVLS

Compound	IC50 [1]	IC50 (SRIF receptor)	IC50 [2]	Binding Inhibition (β-adrenergic receptor; AtT-20)	Binding Inhibition (β-adrenergic receptor; Brain)	Binding Inhibition (Opiate Receptor)	Binding Inhibition (Dopamine Receptor)	Binding Inhibition (Muscarinic cholingeric; AtT-20)	Binding Inhibition (Muscarinic cholingeric; Brain)	concentration required for β-adrenergic receptor binding relative to somatostatin receptor (β-adrenergicreceptor)	IC50 ([2]; also printed as 9.3×10^-9 M)
2-(1H-indol-3-yl)ethyl-6-O-(5-aminopentyl)-2,4-di-O-deoxy-β-D-glucopyranoside [Compound 2]	180 nM	1300 nM	~1000 nM								
NCCCCCOC[C@H]1O[C@@H](OCCc2c[nH]c3ccccc23)[C@H](OCc2ccccc2)[C@@H](OCc2ccccc2)[C@@H]1OCc1ccccc1 [Compound 1, 2-(1H-Indol-3yl)ethyl-6-O-(5-aminopentyl)-2,3,4-tri-O-benzyl-β-D-glucopyranoside]	120 nM	9500 nM	~9500 nM	~70%	45%	55%	82%	20%	83%	five fold higher concentration	
C[C@H](N)C(=O)NCC(=O)N[C@H]1CSSC[C@@H](C(=O)O)NC(=O)[C@H](CO)NC(=O)[C@H]([C@@H](C)O)NC(=O)[C@H](Cc2ccccc2)NC(=O)[C@H]([C@@H](C)O)NC(=O)[C@H](CCCCN)NC(=O)[C@H](Cc2c[nH]c3ccccc23)NC(=O)[C@H](Cc2ccccc2)NC(=O)[C@H](Cc2ccccc2)NC(=O)[C@H](CC(N)=O)NC(=O)[C@H](CCCCN)NC1=O [SRIF, somatostatin, reference compound]		9.3 nM									~9.3 nM
